Consider five compounds from patent US5470858A, “Derivatives of (hetero)aromatic ethers and thioethers having antihyperlipidemic activity, process for their preparation and pharmaceutical compositions containing them” (Pierrel SpA, priority 1991, dated 1995).

This series concerns hyperlipaemic SD male rats. As to the kind of experiment: Hypolipemizing activity, 5 days experimental model, modified Nath diet. It counts as in vivo. To be noted: rat, oral; for change in vivo at 100 mg/kg/day / change in vivo at 300 mg/kg/day: 120 h; for Hepatic index (percent variation vs hyperlipaemic controls): index = (Liver weight/body weight) × 100. The procedure:
The hypolipemizing activity of the compounds of the present invention has been evaluated in the rat using SD male animals (Charles River) of an initial weight of 150 g, housed in controlled environment at a temperature of 21°±1° C., relative humidity 60% and a 12 hours light/dark cycle.
Experimental models have been used in which the animals are rendered hiperlipaemic by "ad libitum" food administration with a modified Nath diet (Atherosclerosis 30, 1978, pag. 45-46) having the following composition: […]
hydrogenated coconut oil
In the first model the animals have been fed with this diet for 5 consecutive days, during which they received the pharmacological treatment once a day by oral route and were sacrificed 2 hours after the last administration.
At the time of the sacrifice the blood was removed, for the lipid determination, as well as the liver the weight of which was the index of a possible hepatomegaly.
By this experimental model the concentration of the serum lipids attained very high values which, in the control group, was four times the normal values for the total cholesterol and the triglycerides.
The determination of the triglycerides, of the total cholesterol and of the cholesterol associated to the HDL has been effected by means of a commercial enzymatic kit. The concentration of the cholesterol associated to VLDL+LDL has been determined by difference between total cholesterol and HDL.
The results obtained in the experimental model of the 5 days duration for some compounds representative of the invention are reported in the following table 1. The data are expressed as percent variation with respect to the hyperlipaemic controls to which carboxymethylcellulose as 0.5% in water at the dose of 10 ml/kg/day by oral route was administered. The same vehicle was used for the suspension of the tested compounds at the doses of 100 and 300 mg/kg/day by oral route.

[1] abbreviates: 100 mg/kg/day, by difference between total and HDL, read-out: Cholesterol VLDL + LDL (percent variation vs hyperlipaemic controls).
Setting [2] is: 100 mg/kg/day, read-out: Cholesterol HDL (percent variation vs hyperlipaemic controls).
Where [3] appears, read: 100 mg/kg/day, read-out: Total Cholesterol (percent variation vs hyperlipaemic controls).
Where [4] appears, read: 100 mg/kg/day, read-out: Triglycerides (percent variation vs hyperlipaemic controls).
[5] abbreviates: 300 mg/kg/day, by difference between total and HDL, read-out: Cholesterol VLDL + LDL (percent variation vs hyperlipaemic controls).
Setting [6] is: 300 mg/kg/day, read-out: Cholesterol HDL (percent variation vs hyperlipaemic controls).
Setting [7] is: 300 mg/kg/day, read-out: Total Cholesterol (percent variation vs hyperlipaemic controls).
Where [8] appears, read: 300 mg/kg/day, read-out: Triglycerides (percent variation vs hyperlipaemic controls).

Where a name gives a salt, the structure may show the parent alone. Read-outs that look alike come from different tables or passages of the source.

Take `CC(C)COC(=O)c1ccc(OCCSc2nc3c(N)ncnc3n2[C@@H]2O[C@H](CO)[C@@H](O)[C@H]2O)cc1` [Example 27]: the change in vivo at 100 mg/kg/day is -14.6% under setting [1], 0.1% under setting [2], -13.6% under setting [3] and -0.4% under setting [4]. The change in vivo at 300 mg/kg/day under setting [5] is -19.3%, the change in vivo at 300 mg/kg/day under setting [6] was 5.7%, the change in vivo at 300 mg/kg/day under setting [7] is -18.4% and the change in vivo at 300 mg/kg/day under setting [8] is -10.2%. Besides, the “Hepatic index (percent variation vs hyperlipaemic controls)” value by setting is: (100 mg/kg/day) “+0,8%”; (300 mg/kg/day) “+0,7%”.
Take `CC(C)COC(=O)c1ccc(OCC(=O)CSc2nc3ccccc3o2)cc1` [Example 1, 2-[3-[(p-isobutyloxycarbonyl)-phenoxyl]-2-oxo-propylthio]-benzoxazole]: the change in vivo at 100 mg/kg/day by setting is: under setting [1], -6.1%; under setting [2], 2.6%; under setting [3], -5.7%; under setting [4], -27.6%. In addition, the change in vivo at 300 mg/kg/day was -6.4% under setting [5], 17.9% under setting [6], -5.2% under setting [7] and -18.4% under setting [8]. For the same compound, the “Hepatic index (percent variation vs hyperlipaemic controls)” value is -8,5% (100 mg/kg/day) and -2,5% (300 mg/kg/day).
Consider `CC(C)COC(=O)c1ccc(OCC(CSc2nc3c(N)ncnc3n2[C@@H]2O[C@H](CO)[C@@H](O)[C@H]2O)=NO)cc1` [Example 31], for which the change in vivo at 100 mg/kg/day is -6.6% under setting [1], 3.2% under setting [2], -0.3% under setting [3] and 14.7% under setting [4]. Moreover, the change in vivo at 300 mg/kg/day runs as follows: under setting [5], -25.7%; under setting [6], -5.1%; under setting [7], -24.7%; under setting [8], -0.7%. Further, the “Hepatic index (percent variation vs hyperlipaemic controls)” value by setting is: (100 mg/kg/day) “+3,6%”; (300 mg/kg/day) -1,5%.
In the case of `CC(C)COC(=O)c1ccc(OCC(O)CSc2ncccn2)cc1` (centres unmarked) [Example 5, 2-[3-[(p-isobutyloxycarbonyl)-phenoxy]-2-hydroxy-propylthio]-pirimidine hydrochloride], the change in vivo at 100 mg/kg/day was 24% under setting [1], -17.7% under setting [2], 22.3% under setting [3] and 13.8% under setting [4]. The change in vivo at 300 mg/kg/day was -20.7% under setting [5], -8.5% under setting [6], -20.3% under setting [7] and -14.9% under setting [8]. Besides, the “Hepatic index (percent variation vs hyperlipaemic controls)” value by setting is: (100 mg/kg/day) -4,1%; (300 mg/kg/day) -5,7%.
For `CCOc1ccc2nc(SCC(O)COc3ccc(C(=O)OCC(C)C)cc3)sc2c1` (centres unmarked) [Example 9, 2-[3-[(p-isobutyloxycarbonyl)-phenoxy]-2-hydroxy-propylthio]6-ethoxy-benzothiazole], the change in vivo at 100 mg/kg/day reads like this: under setting [1], 0.9%; under setting [2], 2.4%; under setting [3], 1%; under setting [4], 0.9%. Also, the change in vivo at 300 mg/kg/day was -7% under setting [5], -0.2% under setting [6], -6.5% under setting [7] and 2.8% under setting [8]. For the same compound, the “Hepatic index (percent variation vs hyperlipaemic controls)” value is recorded as -0,8% (100 mg/kg/day) and -1,2% (300 mg/kg/day).
